Patent US8841321B2, “Quinoline derivatives as antibacterial agents” (Janssen Pharmaceutica NV, priority 2005, dated 2014)
In brackets after ≈: the same amount, converted by molar mass.

Experiments:
[1] = system: STA 29213 (Staphylococcus aureus (ATCC29213)); assay: Microtitre plate assay, IC90 determination; assay type: cell-based; settings: for IC90 (μg/ml) STA 29213: Staphylococcus aureus (ATCC29213); for IC90: Staphylococcus aureus, ATCC29213, Staphylococcus aureus (ATCC29213), read-out: IC90 (μg/ml) STA 29213
How it was run: (§1)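 Growth-inhibition endpoint: resazurin added 3 h after inoculation, plates incubated overnight, fluorescence at 530/590 nm after 24 h at 37 °C. Inocula of roughly 10–60 CFU per well in Mueller-Hinton medium; compounds titrated five-fold. IC90 reported as μg/ml.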

[2] = system: SPN 6305 (Streptococcus pneumoniae (ATCC6305)); assay: Microtitre plate assay, IC90 determination; assay type: cell-based; settings: for IC90 (μg/ml) SPN 6305: Streptococcus pneumoniae (ATCC6305); for IC90: Streptococcus pneumoniae, ATCC6305, Streptococcus pneumoniae (ATCC6305), read-out: IC90 (μg/ml) SPN 6305
How it was run: as §1

[3] = system: SPY 8668 (Streptococcus pyogens (ATCC8668)); assay: Microtitre plate assay, IC90 determination; assay type: cell-based; settings: for IC90: Streptococcus, ATCC8668, Streptococcus pyogens (ATCC8668), read-out: IC90 (μg/ml) SPY 8668; for IC90 (μg/ml) SPY 8668: Streptococcus pyogens (ATCC8668)
[4] = system: LMO 49594 (Listeria monocytogenes (ATCC49594)); assay: Microtitre plate assay, IC90 determination; assay type: cell-based; settings: for IC90: Listeria monocytogenes, ATCC49594, Listeria monocytogenes (ATCC49594), read-out: IC90 (μg/ml) LMO 49594; for IC90 (μg/ml) LMO 49594: Listeria monocytogenes (ATCC49594)
[5] = system: BSU 43639 (Bacillus subtilis (ATCC43639)); assay: Microtitre plate assay, IC90 determination; assay type: cell-based; settings: for IC90: Bacillus subtilis, ATCC43639, Bacillus subtilis (ATCC43639), read-out: IC90 (μg/ml) BSU 43639; for IC90 (μg/ml) BSU 43639: Bacillus subtilis (ATCC43639)
[6] = system: STA 25923 (Staphylococcus aureus (ATCC25923)); assay: Microtitre plate assay, IC90 determination; assay type: cell-based; settings: for IC90: Staphylococcus aureus, ATCC25923, Staphylococcus aureus (ATCC25923), read-out: IC90 (μg/ml) STA 25923; for IC90 (μg/ml) STA 25923: Staphylococcus aureus (ATCC25923)
[7] = system: PAE 27853 (Pseudomonas aeruginosa (ATCC27853)); assay: Microtitre plate assay, IC90 determination; assay type: cell-based; settings: for IC90: Pseudomonas aeruginosa, ATCC27853, Pseudomonas aeruginosa (ATCC27853), read-out: IC90 (μg/ml) PAE 27853; for IC90 (μg/ml) PAE 27853: Pseudomonas aeruginosa (ATCC27853)
[8] = system: STA RMETH (methicilline resistant Staphylococcus aureus (MRSA), a clinical isolate from the University of Antwerp); assay: Microtitre plate assay, IC90 determination; assay type: cell-based; settings: for IC90: Staphylococcus aureus, MRSA, read-out: IC90 (μg/ml) STA RMETH
[9] = system: EFA 29212 (Enterococcus faecalis (ATCC29212)); assay: Microtitre plate assay, IC90 determination; assay type: cell-based; settings: for IC90: Enterococcus faecalis, ATCC29212, Enterococcus faecalis (ATCC29212), read-out: IC90 (μg/ml) EFA 29212; for IC90 (μg/ml) EFA 29212: Enterococcus faecalis (ATCC29212)

Row | SMILES | melting point [°C] | IC90 (μg/ml) STA 29213 [1] [µg/mL] | IC90 (μg/ml) SPN 6305 [2] [µg/mL] | IC90 [3] [µg/mL] | IC90 [4] [µg/mL] | IC90 [5] [µg/mL] | IC90 [6] [µg/mL] | IC90 [7] [µg/mL] | IC90 [8] [µg/mL] | IC90 [9] [µg/mL] | IC90 [2] [µg/mL] | IC90 (μg/ml) SPY 8668 [3] [µg/mL] | IC90 (μg/ml) LMO 49594 [4] [µg/mL] | IC90 (μg/ml) STA 25923 [6] [µg/mL] | IC90 (μg/ml) PAE 27853 [7] [µg/mL] | IC90 (μg/ml) STA RMETH [8] [µg/mL] | IC90 (μg/ml) BSU 43639 [5] [µg/mL] | IC90 (μg/ml) EFA 29212 [9] [µg/mL] | IC90 [1] [µg/mL]
1 | COc1ccc2cc(C(O)(CCCCN(C)C)C(c3ccccc3)c3cc4ccc(Br)cc4nc3OC)ccc2c1 (centres unmarked) [Compound 30] | 160 | 9.7 (≈ 15.8 µM) | 21.8 (≈ 35.5 µM) | – | – | – | – | – | – | – | – | – | – | – | – | – | – | – | –
2 | COc1ccc2cc(C(O)(CCCCN(C)C)C(c3ccccc3)c3cc4ccc(Br)cc4nc3OC)ccc2c1 (centres unmarked) [Compound 31] | – | 1.9 (≈ 3.1 µM) | 9.7 (≈ 15.8 µM) | 4.3 (≈ 7.01 µM) | 4.3 (≈ 7.01 µM) | 9.7 (≈ 15.8 µM) | 12.2 (≈ 19.9 µM) | 1.9 (≈ 3.1 µM) | 4.3 (≈ 7.01 µM) | 10.9 (≈ 17.8 µM) | – | – | – | – | – | – | – | – | –
3 | COc1nc2ccccc2cc1C(c1ccccc1)C(O)(CCCCN(C)C)c1ccc2ccccc2c1 (centres unmarked) [Compound 36] | 105 | 8.0 (≈ 15.9 µM) | 9.0 (≈ 17.8 µM) | – | – | – | – | – | – | – | – | – | – | – | – | – | – | – | –
4 | COc1nc2ccc(-c3cccnc3)cc2cc1C(c1ccccc1)C(O)(CCCCN(C)C)c1ccccc1 (centres unmarked) [Compound 42] | 203 | – | – | – | – | – | – | – | – | – | 53.2 (≈ 100 µM) | – | – | – | – | – | – | – | –
5 | COc1nc2ccc(Br)cc2cc1C(c1ccccc1)C(O)(CCCN(C)C)c1ccccc1 (centres unmarked) [Compound 44] | – | 10.4 (≈ 20 µM) | 11.6 (≈ 22.3 µM) | – | – | 41.3 (≈ 79.5 µM) | – | – | – | 26 (≈ 50 µM) | – | 9.2 (≈ 17.7 µM) | 13.1 (≈ 25.2 µM) | 13.1 (≈ 25.2 µM) | 10.4 (≈ 20 µM) | 13.1 (≈ 25.2 µM) | – | – | –
6 | COc1nc2ccc(Br)cc2cc1C(c1ccccc1)C(O)(CCCN(C)C)c1ccccc1 (centres unmarked) [Compound 45] | – | 41.3 (≈ 79.5 µM) | 52.0 (≈ 100 µM) | – | – | – | – | – | – | – | – | 52.0 (≈ 100 µM) | 41.3 (≈ 79.5 µM) | 41.3 (≈ 79.5 µM) | 52.0 (≈ 100 µM) | 41.3 (≈ 79.5 µM) | 52.0 (≈ 100 µM) | 52.0 (≈ 100 µM) | –
7 | COc1nc2ccc(Br)cc2cc1C(c1ccccc1)C(O)(CCCN(C)C)c1ccc2ccccc2c1 (centres unmarked) [Compound 46] | – | – | 57.0 (≈ 100 µM) | – | – | – | – | 12.8 (≈ 22.5 µM) | – | 50.8 (≈ 89.2 µM) | – | 50.8 (≈ 89.2 µM) | 45.2 (≈ 79.4 µM) | 50.8 (≈ 89.2 µM) | – | 50.8 (≈ 89.2 µM) | 57.0 (≈ 100 µM) | – | 57 (≈ 100 µM)
8 | COc1nc2ccc(Br)cc2cc1C(c1ccccc1)C(O)(CCCN(C)C)c1ccc2ccccc2c1 (centres unmarked) [Compound 47] | – | 57.0 (≈ 100 µM) | 5.1 (≈ 8.95 µM) | – | – | – | – | – | – | – | – | 11.4 (≈ 20 µM) | 2.3 (≈ 4.04 µM) | 12.8 (≈ 22.5 µM) | 10.1 (≈ 17.7 µM) | 12.8 (≈ 22.5 µM) | 11.4 (≈ 20 µM) | 25.4 (≈ 44.6 µM) | –
9 | COc1nc2ccc(Br)cc2cc1C(c1ccccc1)C(O)(CCCN(C)C)c1cccc2ccccc12 (centres unmarked) [Compound 50] | – | – | – | 11.4 (≈ 20 µM) | 14.3 (≈ 25.1 µM) | 14.3 (≈ 25.1 µM) | 14.3 (≈ 25.1 µM) | 11.4 (≈ 20 µM) | 14.3 (≈ 25.1 µM) | 57 (≈ 100 µM) | 14.3 (≈ 25.1 µM) | – | – | – | – | – | – | – | 45.2 (≈ 79.4 µM)
10 | CCN(CC)CCCC(O)(c1ccc2ccccc2c1)C(c1ccccc1)c1cc2cc(Br)ccc2nc1OC (centres unmarked) [Compound 51] | – | 59.8 (≈ 100 µM) | 11.9 (≈ 19.9 µM) | 13.4 (≈ 22.4 µM) | 15 (≈ 25.1 µM) | 15 (≈ 25.1 µM) | 15 (≈ 25.1 µM) | – | 15 (≈ 25.1 µM) | 59.8 (≈ 100 µM) | – | – | – | – | 47.5 (≈ 79.5 µM) | – | – | – | –
11 | CCN(CC)CCCC(O)(c1ccc2ccccc2c1)C(c1ccccc1)c1cc2cc(Br)ccc2nc1OC (centres unmarked) [Compound 52] | – | 15.0 (≈ 25.1 µM) | 2.4 (≈ 4.02 µM) | – | – | – | – | – | – | – | – | 11.9 (≈ 19.9 µM) | 15.0 (≈ 25.1 µM) | 15.0 (≈ 25.1 µM) | 11.9 (≈ 19.9 µM) | 15.0 (≈ 25.1 µM) | 15.0 (≈ 25.1 µM) | 47.5 (≈ 79.5 µM) | –
